According to patent US7148246B2, “Cycloalkyl derivatives having bioisosteric carboxylic acid groups, processes for their preparation and their use as pharmaceuticals” (Sanofi-Aventis Deutschland GmbH, priority 2003, dated 2006):

Molecular target: T1, human PPARalpha (Homo sapiens, UniProt Q07869)
T1 construct: amino acids S167–Y468; expressed in transfected cells; host or cells: HEK (human embryo kidney) cells, stably transfected with pcDNA3 carrying the fusion construct
T1 sequence (Q07869 167-468): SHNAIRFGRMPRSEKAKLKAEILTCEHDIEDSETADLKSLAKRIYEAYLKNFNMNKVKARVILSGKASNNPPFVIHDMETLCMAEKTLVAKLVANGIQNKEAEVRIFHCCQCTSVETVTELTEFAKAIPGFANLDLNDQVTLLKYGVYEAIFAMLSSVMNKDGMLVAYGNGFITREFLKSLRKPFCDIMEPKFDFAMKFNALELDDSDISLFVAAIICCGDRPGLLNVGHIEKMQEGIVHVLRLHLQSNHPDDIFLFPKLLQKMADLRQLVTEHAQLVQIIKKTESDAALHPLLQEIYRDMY
Assay: Cellular PPARalpha assay (stably transfected HEK luciferase reporter cell line)
Format: cell-based
Conditions: PPARalpha reporter cell line (HEK, GR-GAL4-humanPPARalpha-LBD), luciferase readout
Method: Determination of EC50 Values of PPAR Agonists in the Cellular PPARalpha Assay
The potency of substances which bind to human PPARalpha and activate in an agonistic manner is analyzed using a stably transfected HEK cell line (HEK=human embryo kidney) which is referred to here as PPARalpha reporter cell line. It contains two genetic elements, a luciferase reporter element (pdeltaM-GAL4-Luc-Zeo) and a PPARalpha fusion protein (GR-GAL4-humanPPARalpha-LBD) which mediates expression of the luciferase reporter element depending on a PPARalpha ligand. The stably and constitutively expressed fusion protein GR-GAL4-humanPPARalpha-LBD binds in the cell nucleus of the PPARalpha reporter cell line via the GAL4 protein portion to the GAL4 DNA binding motifs 5′-upstream of the luciferase reporter element which is integrated in the genome of the cell line. There is only little expression of the luciferase reporter gene without addition of a PPARalpha ligand if fatty acid-depleted fetal calf serum (cs-FCS) is used in the assay. PPARalpha ligands bind and activate the PPARalpha fusion protein and thereby bring about expression of the luciferase reporter gene. The luciferase which is formed can be detected by means of chemiluminescence via an appropriate substrate.
The PPARalpha reporter cell line was prepared in 2 stages. Firstly, the luciferase reporter element was constructed and stably transfected into HEK cells. For this purpose, five binding sites of the yeast transcription factor GAL4 (each 5′-CGGAGTACTGTCCTCCGAG-3′) (SEQ ID No.1) were cloned in 5′-upstream of a 68 bp-long minimal MMTV promoter (Genbank Accession #V01175). The minimal MMTV promoter section contains a […] and a TATA element in order to enable efficient transcription by RNA polymerase II. The cloning and sequencing of the GAL4-MMTV construct took place in analogy to the description of Sambrook J. et. al. (Molecular cloning, Cold Spring Harbor Laboratory Press, 1989). Then the complete Photinus pyralis gene (Genbank Accession #M15077) was cloned in 3′-downstream of the GAL4-MMTV element. After sequencing, the luceriferase reporter element consisting of five GAL4 binding sites, MMTV promoter and luciferase gene was recloned into a plasmid which confers zeocin resistance in order to obtain the plasmid pdeltaM-GAL4-Luc-Zeo. This vector was transfected into HEK cells in accordance with the statements in Ausubel, F. M. et al. (Current protocols in molecular biology, Vol. 1–3, John Wiley & Sons, Inc., 1995). […] In a second step, the PPARalpha fusion protein (GR-GAL4-humanPPARalpha-LBD was introduced into the stable cell clone described. For this purpose, initially the cDNA coding for the N-terminal 76 amino acids of the glucocorticoid receptor (Genbank Accession #P04150) was linked to the cDNA section coding for amino acids 1–147 of the yeast transcription factor GAL4 (Genbank Accession #P04386). The cDNA of the ligand-binding domain of the human PPARalpha receptor (amino acids S167–Y468; Genbank Accession #S74349) was cloned in at the 3′-end of this GR-GAL4 construct. The fusion construct prepared in this way (GR-GAL4-humanPPARalpha-LBD) was recloned into the plasmid pcDNA3 (from Invitrogen) in order to enable constitutive expression therein by the cytomegalovirus promoter. This plasmid was linearized with a restriction endonuclease and stably transfected into the previously described cell clone containing the luciferase reporter element. The finished PPARalpha reporter cell line which contains a luciferase reporter element and constitutively expresses the PPARalpha fusion protein (GR-GAL4-human PPARalpha-LBD) was isolated by selection with zeocin (0.5 mg/ml) and G418 (0.5 mg/ml).
The activity of PPARalpha agonists is determined in a 3-day assay which is described below: […]

Compound | EC50
Cc1ccc(-c2nc(CO[C@@H]3CCC[C@H](/C=C4/SC(=O)NC4=O)C3)c(C)o2)cc1 (racemic) [Example XXXIV, 5-[1-[cis-3-(5-Methyl-2-tolyloxazol-4-ylmethoxy)cyclohexyl]methylidene]-thiazolidine-2,4-dione] | 114 nM
Cc1oc(-c2ccc(F)cc2)nc1COC1CCCC(OC/C=C2\NC(=O)NC2=O)C1 (racemic) [XXIV, 5-[2-{cis-3-[2-(4-Fluorophenyl)-5-methyloxazol-4-ylmethoxy]cyclohexyloxy}-ethylidene]imidazolidine-2,4-dione] | 227 nM
Cc1oc(-c2ccc(F)cc2)nc1CO[C@@H]1CCC[C@H](OS(=O)(=O)c2cc([N+](=O)[O-])ccc2Cl)C1 (relative stereo) [Example XX, cis-3-[2-(4-fluorophenyl)-5-methyloxazol-4-ylmethoxy]cyclohexyl 2-chloro-5-nitrobenzenesulfonate] | 1930 nM
COc1ccc(S(=O)(=O)O[C@H]2CCC[C@@H](OCc3nc(-c4ccc(F)cc4)oc3C)C2)c([N+](=O)[O-])c1 (relative stereo) [Example XXI, cis-3-[2-(4-fluorophenyl)-5-methyloxazol-4-ylmethoxy]cyclohexyl 4-methoxy-2-nitrobenzenesulfonate] | 1250 nM
Cc1oc(-c2ccc(F)cc2)nc1CO[C@@H]1CCC[C@H](OCCC2SC(=O)NC2=O)C1 (relative stereo) [Example XXVI, 5-(2-{cis-3-[2-(4-Fluorophenyl)-5-methyloxazol-4-ylmethoxy]cyclohexyloxy}-ethyl)thiazolidine-2,4-dione] | 709 nM
Cc1oc(-c2ccc(F)cc2)nc1CO[C@H]1CCC[C@@H](OCc2cccc([N+](=O)[O-])c2)C1 (relative stereo) [VIII, 2-(4-Fluorophenyl)-5-methyl4-[cis-3-(3-nitrobenzyloxy)cyclohexyloxy-methyl]oxazole] | 91 nM
Cc1cccc(-c2nc(COC3CCCC(OCCC4SC(=O)NC4=O)C3)c(C)o2)c1 (stereo not drawn) [Example XXVII, 5-{2-[(cis-3-(5-Methyl-2-tolyloxazol-4-ylmethoxy)cyclohexyloxy]ethyl}thiazolidine-2,4-dione] | 726 nM
Cc1ccc(-c2nc(COC3CCCC(CC4SC(=O)NC4=O)C3)c(C)o2)cc1 (stereo not drawn) [XXXV, 5-[cis-3-(5-Methyl-2-tolyloxazol-4-ylmethoxy)cyclohexylmethyl]thiazolidine-2,4-dione] | 187 nM
